We go through one compound from patent US20240307335A1, “IRG Blockade to Armor CAR T Cells Against Myeloid Dysfunction” (ROSWELL PARK CANCER INSTITUTE CORPORATION, priority 2023, published 2024).

One assay relates to CAR T cells. The assay can be described thus: Seahorse assay (ECAR, OCR) on CAR T cells from cocultures. In kind it is cell-based, mouse. The conditions noted are these: L-NIL 50 μM; coculture 48 h. How it is done:
CAR T cell isolation from initial coculture for subsequent downstream assays: 1×10^6 CAR T cells and 1×10^6 Eμ-myc-GFP-FFL cells were cocultured in the absence or presence of 0.25×10^6 macrophages in a 6-well plate in 6 ml of media for 48 h. After initial coculture, cells were harvested, and T cells were isolated using Mouse T Cell Isolation Kit (STEMCELL Technologies). T cell purity was 100% as tested by flow cytometry. Percentage of CAR-expressing T cells was determined with flow cytometry and were subsequently used for downstream assays.
Seahorse assay: ECAR and OCR were measured using a Seahorse Extracellular Flux Analyzer (Agilent Technologies). XF96 microplates were coated with CellTak a day before analyses. To assay glycolytic function, T cells were resuspended in glucose-free XF medium supplied with 2 mM L-glutamine and 1 mM sodium pyruvate and seeded at 2×10^5 cells in 180 μl per well. Following incubation in a CO2-free incubator for 60 min at 37° C. for pH stabilization, ECAR was measured in response to 10 mM glucose, 1 μM oligomycin, and 50 mM 2-deoxyglucose. […] Following incubation in a CO2-free incubator for 60 min at 37° C. for pH stabilization, OCR was measured in response to 1 μM oligomycin, 1 μM FCCP, and 0.5 μM rotenone and antimycin.

Another assay relates to Eμ-myc B cell tumors. In words: Survival of Eμ-myc tumor-bearing mice treated with CAR T cells and L-NIL. The conditions noted are these: combination of 1928z CAR T cells and L-NIL (i.p. once per day, 20 mg/kg) compared to 1928z CAR T cells alone; Eμ-myc tumors in peritoneal cavity. In kind it is in vivo, mouse. How it is done: Animal experiment: Six- to 10-week-old Rag1^+/+ mice of both sexes were intraperitoneally (i.p.) injected with 3×10^6 Eμ-myc-GFP-FFL cells to generate tumors localized in peritoneal cavity. Tumor engraftment was verified by bioluminescence imaging one day before CAR T cell transfer. Mice were randomized to different treatment groups without differences in pre-treatment tumor load. Seven days after tumor cell inoculation, mice were injected i.p. with 5×10^6 CAR T cells in 300 μl PBS. For survival experiments, L-NIL or PBS was administered i.p. once per day at 20 mg/kg body weight starting on the same day of tumor cell injection. […] Bioluminescence imaging was performed by IVIS Lumina III In Vivo Imaging System (PerkinElmer) with Living Image software (PerkinElmer).

The test system of the next assay is Eμ-myc cells. The assay can be described thus: Luciferase-based killing assay with CAR T cells isolated from initial coculture. The conditions noted are these: CAR T cells isolated after 48 h initial coculture with Eμ-myc cells and imMac with agent (L-NIL 50 μM; anti-IFN-γ 10 μg/mL); lysis at 24 h. In kind it is cell-based, mouse. How it is done:
CAR T cell isolation from initial coculture for subsequent downstream assays: 1×10^6 CAR T cells and 1×10^6 Eμ-myc-GFP-FFL cells were cocultured in the absence or presence of 0.25×10^6 macrophages in a 6-well plate in 6 ml of media for 48 h. After initial coculture, cells were harvested, and T cells were isolated using Mouse T Cell Isolation Kit ([…] Technologies). […] Percentage of CAR-expressing T cells was determined with flow cytometry and were subsequently used for downstream assays.
Luciferase-based killing assay: 2×10^4 Eμ-ALL-GFP-FFL cells were cocultured with CAR T cells at different effector-to-target ratios in a 96-well white-walled plate in 100 μl of media. Following incubation, 100 μl luciferase substrate reagent (ONE-Glo Luciferase assay system, Promega) was added to each well. Target cells alone were plated at the same cell density to determine maximum luciferase signals. Emitted luminescence was detected in the microplate reader (GloMax, Promega). Percent lysis was determined as (1−sample signal/maximum signal)×100.

Assay [1] concerns CAR T cells cocultured with Eμ-myc cells with or without macrophages (imMac). In words: Expansion assay of mCherry+ CAR T cells (IncuCyte live cell analysis) in cocultures. The conditions noted are these: CAR T cells and Eμ-myc cells with imMac, agent present (L-NIL 50 μM; anti-IFN-γ 10 μg/mL; c-PTIO); over 48 h. In kind it is cell-based, mouse. How it is done:
Macrophage development and polarization: BMDMs were generated from bone marrow cells harvested from femurs and tibias of WT or iNOS^−/− mice. […] On day 3, 10 ml of fresh medium with 20 ng/ml M-CSF was added. On day 5, the culture medium was entirely discarded and replaced by 15 ml of fresh medium with 20 ng/ml M-CSF. On day 6, BMDMs were activated for 24 h with 20 ng/ml of IL-4 and IL-10 (Peprotech) to develop imMac or cultured in media only to use as unMac. M-CSF (20 ng/ml) was added during activation with cytokines. On day 7, adherent cells were harvested by gentle scraping and used for in vitro experiments.
Expansion assay: The expansion of mCherry^+ CAR T cells was determined by an IncuCyte S3 live cell analysis system (Essen Bioscience). 2×10^4 Eμ-myc cells and 2×10^4 CAR T cells were cocultured in the absence or presence of 0.5×10^4 macrophages (CAR T:Eμ-myc cell:Macrophage=1:1:0.25, unless otherwise indicated in the figures) in a 96-well black-walled clear bottom plate in 120 μl of media. Cell images were captured at 4× magnification. The expansion index was calculated by dividing the total integrated red intensity (RCU×m^2/mm^2) at each time point by the first time point.
Immunoregulatory actions of macrophages on CAR T cells: To explore how M2-like macrophages may impact the cellular function of CAR T cells, the study employed a syngeneic coculture system (FIG. 3A). […] The BMDMs were either unpolarized (unMac) or induced to differentiate into M2-like macrophages by culturing with type 2 cytokines IL-4 and IL-10. […] The study next explored the impact of imMac on CAR T cell effector function. To exclude the direct contribution of macrophage effector activities in these functional assays, CAR T cells, Eμ-myc cells, and macrophages were first cocultured for 48 hours (FIG. 3G). Next, CAR T cells isolated from the cocultures were evaluated for their effector function against fresh Eμ-myc cells.

SMILES strings stand for the structures.

Consider `CC(=N)NCCCC[C@H](N)C(=O)O.Cl` [L-NIL, N^6-(1-Iminoethyl)-lysine, hydrochloride], for which, in the assay on CAR T cells, the “glycolytic metabolic capacity (ECAR) of CAR T cells from cocultures with imMac” value is given as “preserved” and the “oxidative metabolic capacity (OCR) of CAR T cells from cocultures with imMac” value is on record as “preserved”. For the same compound, the “survival of tumor-bearing mice” value in the assay on Eμ-myc B cell tumors is given as “significantly improved survival”. In the assay with Eμ-myc cells, the “lysis of Eμ-myc cells by CAR T cells (capacity to kill tumor cells)” value is reported as “preserved the capacity of CAR T cells to kill tumor cells”. Also, the “CAR T cell expansion in cocultures with imMac” value in assay [1] is given as “complete rescue of CAR T cell expansion”.
